Values quoted from earlier work in patent publication US20240035023A1, “COMPUTER IMPLEMENTED METHOD FOR E[…] FOR SYNTHESIS OF FL[…]” (Kcat Enzymatic Private Limited, priority 2022, published 2024).

Molecular target: fluorinase (Streptantibioticus cattleyicolor, UniProt Q70GK9)

For `Nc1ncnc2c1ncn2[C@@H]1O[C@H](CSCC[C@H](N)C(=O)O)[C@@H](O)[C@H]1O` [S-adenosyl-homocysteine], the “enzyme activity against the substrate” value is given as “no activity”.
